Assay results as given in PubChem BioAssay AID180 (DTP/NCI, 2004).
Where “and” joins values, the source holds several entries; their conditions need not be identical. Identical values can stand only once.

Tested on: BDF1 mice, Adenocarcinoma 755 s.c., tumor weight T/C
Test: NCI In Vivo Anticancer Drug Screen. Data for tumor model Adenocarcinoma 755 (subcutaneous) in B6D2F1 (BDF1) mice
Conditions: endpoint: mean tumor weight, vehicle: alcohol, higher = larger tumour
Experimental: The antitumor activity of compounds was measured in mice bearing transplantable tumors. Survival or tumor size were measured and the results are expressed as the measurement made in the treated group (T) divided by the measurement made in the vehicle treated control group (C). The tumor model used in this assay is Adenocarcinoma 755 (subcutaneous) in B6D2F1 (BDF1) mice

## CCCSc1ncnc2nc[nH]c12
dose: 0.12 mg/kg/injection, schedule: Q#A X022 (ip)
  T/C: 73 % of control
dose: 0.25 mg/kg/injection, schedule: Q#A X022 (ip)
  T/C: 46 % of control
dose: 0.5 mg/kg/injection, schedule: Q01DX011 (ip)
  T/C: 80 % of control
dose: 1.0 mg/kg/injection, schedule: Q01DX006 (iv)
  T/C: 111 % of control
dose: 1.0 mg/kg/injection, schedule: Q01DX011 (im)
  T/C: 82 % of control
dose: 1.0 mg/kg/injection, schedule: Q01DX011 (ip)
  T/C: 55 % of control
dose: 1.0 mg/kg/injection, schedule: Q01DX011 (oral)
  T/C: 44 % of control
dose: 1.0 mg/kg/injection, schedule: Q01DX011 (sc)
  T/C: 98 % of control
dose: 1.0 mg/kg/injection, schedule: Q03DX004 (ip)
  T/C: 56 % of control
dose: 2.5 mg/kg/injection, schedule: Q01DX011 (ip)
  T/C: 24 % of control
dose: 2.5 mg/kg/injection, schedule: Q#A X022 (ip)
  T/C: 7 % of control
dose: 3.0 mg/kg/injection, schedule: Q01DX011 (oral)
  T/C: 15 % of control
dose: 3.0 mg/kg/injection, schedule: Q03DX004 (ip)
  T/C: 85 % of control
dose: 3.0 mg/kg/injection, schedule: Q07DX002 (ip)
  T/C: 53 % of control
dose: 5.0 mg/kg/injection, schedule: Q01DX006 (iv)
  T/C: 16 % of control
dose: 5.0 mg/kg/injection, schedule: Q01DX011 (im)
  T/C: 9 % of control
dose: 5.0 mg/kg/injection, schedule: Q01DX011 (ip)
  T/C: 3 % of control
dose: 5.0 mg/kg/injection, schedule: Q01DX011 (sc)
  T/C: 5 % of control
dose: 5.0 mg/kg/injection, schedule: Q#A X022 (ip)
  T/C: 3 % of control
dose: 6.0 mg/kg/injection, schedule: Q01DX011 (oral)
  T/C: 4 % of control
dose: 6.0 mg/kg/injection, schedule: Q03DX004 (ip)
  T/C: 74 % of control
dose: 6.0 mg/kg/injection, schedule: Q07DX002 (ip)
  T/C: 20 % of control
dose: 10.0 mg/kg/injection, schedule: Q01DX006 (iv)
  T/C: 10 % of control
dose: 10.0 mg/kg/injection, schedule: Q01DX011 (ip)
  T/C: 4 % of control
dose: 10.0 mg/kg/injection, schedule: Q01DX011 (sc)
  T/C: 4 % of control
dose: 10.0 mg/kg/injection, schedule: Q#A X022 (ip)
  T/C: 4 % of control
dose: 12.0 mg/kg/injection, schedule: Q01DX001 (ip)
  T/C: 62 % of control
dose: 12.0 mg/kg/injection, schedule: Q01DX011 (oral)
  T/C: 4 % of control
dose: 12.0 mg/kg/injection, schedule: Q03DX004 (ip)
  T/C: 26 % of control
dose: 12.0 mg/kg/injection, schedule: Q07DX002 (ip)
  T/C: 36 % of control
dose: 20.0 mg/kg/injection, schedule: Q01DX006 (iv)
  T/C: 1 % of control
dose: 20.0 mg/kg/injection, schedule: Q01DX011 (ip)
  T/C: 2 % of control
dose: 20.0 mg/kg/injection, schedule: Q01DX011 (sc)
  T/C: 6 % of control
dose: 25.0 mg/kg/injection, schedule: Q01DX001 (ip)
  T/C: 49 % of control
dose: 25.0 mg/kg/injection, schedule: Q03DX004 (ip)
  T/C: 5 % of control
dose: 25.0 mg/kg/injection, schedule: Q07DX002 (ip)
  T/C: 12 % of control
dose: 30.0 mg/kg/injection, schedule: Q01DX011 (ip)
  T/C: 3 % of control
dose: 50.0 mg/kg/injection, schedule: Q03DX004 (ip)
  T/C: 16 % of control
dose: 50.0 mg/kg/injection, schedule: Q07DX002 (ip)
  T/C: 16 % of control
dose: 100.0 mg/kg/injection, schedule: Q01DX001 (ip)
  T/C: 35 % of control and 51 % of control
dose: 100.0 mg/kg/injection, schedule: Q03DX004 (ip)
  T/C: 3 % of control
dose: 100.0 mg/kg/injection, schedule: Q07DX002 (ip)
  T/C: 17 % of control
dose: 150.0 mg/kg/injection, schedule: Q01DX001 (ip)
  T/C: 21 % of control and 34 % of control
dose: 150.0 mg/kg/injection, schedule: Q03DX004 (ip)
  T/C: 5 % of control
dose: 150.0 mg/kg/injection, schedule: Q07DX002 (ip)
  T/C: 5 % of control
dose: 200.0 mg/kg/injection, schedule: Q07DX002 (ip)
  T/C: 5 % of control
